Measurements taken from patent publication US11214803B2, “Modulators of YAP1 expression” (Ionis Pharmaceuticals, Inc., priority 2019, dated 2022).
Strand notation (5' to 3'): a small letter for the sugar, then the base; units joined by * are phosphorothioate-linked, units joined directly phosphodiester-linked; [ ] holds rarer units or linkages, { } end groups; capitals alone tell only the bases. k = constrained ethyl (cEt); [5mC] = 5-methylcytosine; d = 2'-deoxy (DNA)

System: Yap1 mRNA
Assay: Antisense inhibition of human Yap1 in A-431 cells by cEt gapmers, single dose (Example 3, RTS36584)
Format: cell-based
In short: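 Read-out is Yap1 mRNA as percent of untreated control, by quantitative RT-PCR normalized to total RNA (RiboGreen). Cells (A-431) received 2,000 nM of 3-10-3 cEt phosphorothioate gapmer via free uptake for roughly 48 hours.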

[1] = Table 9, A-431 cells, 5,000 cells per well, free uptake, 2,000 nM, approximately 48 hours, RTS36584, normalized to RIBOGREEN, Yap1 mRNA relative to untreated control cells
[2] = Table 12, A-431 cells, 5,000 cells per well, free uptake, 2,000 nM modified oligonucleotide, approx. 48 hours, RTS36584, normalized to RIBOGREEN, Yap1 mRNA relative to untreated control cells
[3] = Table 34, Yap1 mRNA as percent of untreated control, 3-10-3 cEt gapmers targeting SEQ ID NO: 1 and 2, single dose
[4] = Table 27, Yap1 mRNA by 3-10-3 cEt gapmers targeting SEQ ID NO.: 1, and 2, percent of untreated control
[5] = Table 35, Yap1 mRNA as percent of untreated control, 3-10-3 cEt gapmers targeting SEQ ID NO: 1 and 2, single dose
[6] = Table 26, Yap1 mRNA by 3-10-3 cEt gapmers targeting SEQ ID NO.: 1, and 2, percent of untreated control
[7] = Table 28, Yap1 mRNA as percent of untreated control, 3-10-3 cEt gapmers targeting SEQ ID NO.: 1, and 2
[8] = Table 8, A-431 cells, 5,000 cells per well, free uptake, 2,000 nM, approximately 48 hours, RTS36584, normalized to RIBOGREEN, Yap1 mRNA relative to untreated control cells
[9] = Table 11, A-431 cells, 5,000 cells per well, free uptake, 2,000 nM oligonucleotide, approx. 48 hours, primer probe set RTS36584, Yap1 mRNA normalized to RIBOGREEN, percent of untreated control
[10] = Table 10, A-431 cells, 5,000 cells per well, free uptake, 2,000 nM oligonucleotide, approx. 48 hours, primer probe set RTS36584, Yap1 mRNA normalized to RIBOGREEN, percent of untreated control
[11] = Table 29, Yap1 mRNA as percent of untreated control, 3-10-3 cEt gapmers targeting SEQ ID NO.: 1, and 2

958721 (antisense kG*kT*kA*dG*dT*dA*dT*dA*dA*dT*dG*dA*dG*kT*kT*kA) [Compound 958721]
YAP1 (% UTC) [1]: 1 % UTC

958709 (antisense kT*k[5mC]*kA*dA*dT*d[5mC]*dT*dA*dT*dG*dA*dG*dA*k[5mC]*k[5mC]*k[5mC]) [Compound 958709]
YAP1 (% UTC) [2]: 57 % UTC

958461 (antisense kG*k[5mC]*k[5mC]*dG*dA*dA*dG*d[5mC]*dA*dG*dT*dT*d[5mC]*kT*kT*kG) [Compound 958461]
YAP1 (% UTC) [1]: 79 % UTC

1075956 (kT*kA*kT*dA*dA*dA*dG*d[5mC]*dA*dA*dT*dG*d[5mC]*kG*kA*kT; antisense) [compound 1075956]
YAP1 (% UTC) [3]: 27 % UTC

1074669 (antisense kA*kT*k[5mC]*d[5mC]*d[5mC]*dA*dA*d[5mC]*dA*dA*d[5mC]*dA*dT*kG*k[5mC]*kT) [compound 1074669]
YAP1 (% UTC) [4]: 13 % UTC

1075445 (antisense kT*kA*kT*dA*dA*dA*dT*d[5mC]*d[5mC]*dT*d[5mC]*dA*dT*kG*kT*kG) [compound 1075445]
YAP1 (% UTC) [5]: 84 % UTC

1075852 (kG*kA*kT*dA*dA*dG*d[5mC]*d[5mC]*dG*dA*dA*dT*dA*kT*kG*kG; antisense) [compound 1075852]
YAP1 (% UTC) [6]: 58 % UTC

1076334 (antisense kA*k[5mC]*k[5mC]*dT*dA*dT*dA*dA*dG*dG*dA*dA*dT*kG*kG*k[5mC]) [compound 1076334]
YAP1 (% UTC) [7]: 108 % UTC

1076076 (kT*kA*kT*d[5mC]*dA*dA*dT*dA*d[5mC]*dT*dT*dT*dA*kG*kT*k[5mC]; antisense) [compound 1076076]
YAP1 (% UTC) [6]: 57 % UTC

1075566 (kA*kT*kA*dT*dA*dT*dA*dA*d[5mC]*dA*dG*dG*d[5mC]*k[5mC]*kA*k[5mC]; antisense) [compound 1075566]
YAP1 (% UTC) [7]: 50 % UTC

958711 (antisense k[5mC]*k[5mC]*kA*dA*dA*dT*dA*dA*dG*dG*dA*dT*d[5mC]*kT*kG*kT) [Compound 958711]
YAP1 (% UTC) [1]: 34 % UTC

958579 (kA*kT*k[5mC]*dT*dT*dA*dA*dT*d[5mC]*dT*dG*dT*dG*kG*k[5mC]*kT; antisense) [Compound 958579]
YAP1 (% UTC) [2]: 4 % UTC

958385 (antisense kG*k[5mC]*kG*d[5mC]*dG*d[5mC]*dG*d[5mC]*dA*dT*dT*dG*dT*kG*k[5mC]*kA) [Compound 958385]
YAP1 (% UTC) [8]: 115 % UTC

958458 (antisense kG*kT*kT*d[5mC]*dA*dT*d[5mC]*dT*dG*dG*dG*dA*d[5mC]*kA*kG*k[5mC]) [Compound 958458]
YAP1 (% UTC) [9]: 12 % UTC

1074356 (antisense kG*kA*kG*dG*dG*dA*d[5mC]*dA*d[5mC]*dT*dG*dT*dA*kG*k[5mC]*kT) [compound 1074356]
YAP1 (% UTC) [3]: 43 % UTC

958732 (antisense kA*kG*k[5mC]*dA*d[5mC]*dG*dG*dT*dG*dT*dA*dG*d[5mC]*kT*kT*kT) [Compound 958732]
YAP1 (% UTC) [10]: 60 % UTC

958757 (antisense kG*kT*kG*dA*dT*d[5mC]*dT*dG*d[5mC]*dA*d[5mC]*dA*dT*kT*kG*kT) [Compound 958757]
YAP1 (% UTC) [10]: 5 % UTC

1074357 (antisense k[5mC]*kG*kA*dG*dG*dG*dA*d[5mC]*dA*d[5mC]*dT*dG*dT*kA*kG*k[5mC]) [compound 1074357]
YAP1 (% UTC) [5]: 12 % UTC

958631 (antisense kT*kG*k[5mC]*dA*dA*dA*dT*dA*dG*dG*dA*dG*dA*kG*kG*kG) [Compound 958631]
YAP1 (% UTC) [1]: 122 % UTC

1075828 (kT*kT*kA*dG*dA*dA*dT*dA*dG*dT*dT*d[5mC]*dT*kA*k[5mC]*k[5mC]; antisense) [compound 1075828]
YAP1 (% UTC) [3]: 59 % UTC

1075599 (antisense kA*k[5mC]*k[5mC]*d[5mC]*dT*dA*dT*dA*dG*d[5mC]*dT*dT*dT*kA*kG*kG) [compound 1075599]
YAP1 (% UTC) [11]: 90 % UTC

1075726 (kA*kG*kT*dT*dA*dT*d[5mC]*d[5mC]*dT*dA*dT*d[5mC]*dT*kG*kT*k[5mC]; antisense) [compound 1075726]
YAP1 (% UTC) [7]: 14 % UTC

1076268 (kG*kT*kA*d[5mC]*dA*dA*dT*dA*dA*dT*dG*d[5mC]*dT*kT*k[5mC]*k[5mC]; antisense) [compound 1076268]
YAP1 (% UTC) [6]: 10 % UTC

958407 (antisense kA*kA*kT*dA*d[5mC]*dT*dG*dA*dT*d[5mC]*dT*dG*d[5mC]*kA*kG*k[5mC]) [Compound 958407]
YAP1 (% UTC) [8]: 35 % UTC

1076431 (k[5mC]*kA*k[5mC]*d[5mC]*dA*dA*dT*dA*dG*dA*dA*d[5mC]*dA*kT*kA*kT; antisense) [compound 1076431]
YAP1 (% UTC) [11]: 31 % UTC

958413 (antisense k[5mC]*kT*kA*dG*dT*dA*dA*dT*d[5mC]*dT*dT*dA*d[5mC]*kT*kG*kG) [Compound 958413]
YAP1 (% UTC) [8]: 80 % UTC

958652 (kG*k[5mC]*kT*dA*d[5mC]*dG*dA*d[5mC]*dG*dG*d[5mC]*dT*dG*kG*k[5mC]*k[5mC]; antisense) [Compound 958652]
YAP1 (% UTC) [10]: 136 % UTC

958567 (kT*k[5mC]*kA*dA*d[5mC]*d[5mC]*dT*dA*dT*dG*dA*dA*d[5mC]*kT*kA*kT; antisense) [Compound 958567]
YAP1 (% UTC) [10]: 3 % UTC

958672 (kG*kA*kA*d[5mC]*dT*dT*dA*dG*dT*dT*d[5mC]*d[5mC]*d[5mC]*kT*kT*k[5mC]; antisense) [Compound 958672]
YAP1 (% UTC) [10]: 67 % UTC

1075375 (antisense k[5mC]*kT*kA*dA*dA*dT*dA*dT*d[5mC]*dA*dA*d[5mC]*dT*k[5mC]*k[5mC]*k[5mC]) [compound 1075375]
YAP1 (% UTC) [11]: 35 % UTC

1075212 (k[5mC]*kA*kA*dT*dA*dA*dA*dG*dG*dG*dT*d[5mC]*d[5mC]*kT*kA*kA; antisense) [compound 1075212]
YAP1 (% UTC) [6]: 76 % UTC

1075020 (antisense kT*kT*kA*dA*dT*dT*dA*dG*d[5mC]*dA*dT*dT*dA*kG*kA*kG) [compound 1075020]
YAP1 (% UTC) [6]: 30 % UTC

958668 (kG*kT*kG*dA*dT*d[5mC]*dT*dG*dT*dG*dA*dG*dA*kG*kG*kT; antisense) [Compound 958668]
YAP1 (% UTC) [9]: 2 % UTC

958387 (antisense kG*kA*kG*dG*d[5mC]*dG*d[5mC]*dG*d[5mC]*dG*d[5mC]*dA*dT*kT*kG*kT) [Compound 958387]
YAP1 (% UTC) [8]: 131 % UTC

1074957 (antisense kA*kA*k[5mC]*d[5mC]*d[5mC]*dG*dG*dG*dT*dT*dT*dT*dT*kG*kT*k[5mC]) [compound 1074957]
YAP1 (% UTC) [4]: 102 % UTC

1075343 (antisense kA*kA*k[5mC]*dT*dA*dA*dA*dA*dG*dG*dG*dA*dG*kT*kA*kG) [compound 1075343]
YAP1 (% UTC) [11]: 89 % UTC

1075381 (antisense kT*kA*kT*dT*dA*d[5mC]*d[5mC]*d[5mC]*dT*dA*d[5mC]*dT*d[5mC]*kA*kT*kA) [compound 1075381]
YAP1 (% UTC) [5]: 89 % UTC

1075476 (kT*k[5mC]*kT*dT*dA*dT*d[5mC]*d[5mC]*dT*dA*d[5mC]*dA*dG*k[5mC]*kT*kT; antisense) [compound 1075476]
YAP1 (% UTC) [3]: 75 % UTC

958556 (k[5mC]*kA*kA*d[5mC]*d[5mC]*dA*dA*d[5mC]*dT*dA*dT*dT*dA*k[5mC]*kT*kT; antisense) [Compound 958556]
YAP1 (% UTC) [1]: 10 % UTC

958794 (antisense kT*kT*k[5mC]*d[5mC]*dG*d[5mC]*dA*dT*dT*dG*d[5mC]*d[5mC]*dT*kA*kA*kG) [Compound 958794]
YAP1 (% UTC) [2]: 14 % UTC
